Measurements from patent US5084481A, “Method of treating inflammatory diseases with pharmaceutical composition containing dihydrolipoic acid as active substance” (Asta Pharma Aktiengesellschaft, priority 1989, dated 1992).
“Also recorded” adds a separate entry of the source.

Assays:
[1] = Comparison of the effect with alpha-lipoic acid and S-adenosyl-L-methionine (animal experiments); type: in vivo
[2] = rats and mice; solutions in water or physiological sodium chloride containing venom and substance; cited from earlier work
[3] = Acute toxicity in the mouse (LD50, Litchfield and Wilcoxon); conditions: in vivo, oral application
Procedure: The acute toxicity of the invention in the mouse (expressed as the LD50 mg/kg; method of LITCHFIELD and WILCOXON, J. Pharmacol. Exp. Ther. 95:99, (1949)) is for example above 200 mg/kg in the case of oral application.

[4] = Further investigatory models (MgSO4 writhing, adjuvans arthritis, mouse ear edema, arthrosis, intestinal ulceration, colitis, ethanol ulcer, UV-B radiation in healthy subjects); type: in vivo, rat, chicken; conditions: models listed, stated collectively
Description: MgSO4 writhing test in the mouse after GYIRES et al. (Arch. int. pharmacodyn. therap. 267, 131-140, 1984)
Adjuvans arthritis in the rat after NEWBOULD (Brit. J. Pharmacol. 21, 127-136, 1963)
TPA or arachidonic acid-induced mouse ear edema after YOUNG et al. (J. Invest. Dermatol. 80, 48-52, 1983)
Na-mono-iodine acetate-induced arthrosis in rats or chickens after KALBHEN, in: Arthrosis deformans, Eular-Verlag, Basel/Switzerland, 1982
TPA-induced arthrosis in rats after WEISCHER (Agents and Actions 23, 1/2, 1988)
Intestinal ulceration in rats after DEL SOLDATO (Agents and Actions 16, 393-396, 1985)
Colitis model in the rat after WEISCHER (Agents and Actions, 1988)
Ethanol ulcer model in the rat (determination of, for example, a cytoprotective effect)
The effect of topical DL-dihydrolipoic acid in the complex of symptoms induced by UV-B radiation in healthy subjects

[5] = Randall Selitto inflammation pain test in rat; type: in vivo; conditions: for ED50: 0.5 h, pain threshold 30 minutes after substance, read-out: analgesically effective ED50, Randall Selitto test
Procedure: The following is a brief description of the pharmacological test methods specially mentioned herein: Randall Selitto Test (inflammatory pain in the rat):
On the basis of the method after RANDALL and SELITTO (L.O. Randall and J. Selitto, Arch. int. Pharmacodyn., Vol. 111, pages 409-418 (1957)) 0.1 ml of a 20% suspension of brewer's yeast (in demineralized water) is injected subplantar into the right rear paw of rats. After 21/2 hours the test substances are given and 30 minutes later the pain threshold is measured as a pressure (in grams) on the inflamed paw using an algesimeter (equipment by Ugo BASILE, Milan/Italy). The criterion is the defense reaction of the animals in pulling the paw away and/or escaping from the technician's grip. The effect of the substance is determined by the increase in the pain threshold compared to an untreated control group. The course of the experiment differs from the original method in that the substances are only administered 21/2 hours after appearance of the edema and not given simultaneously therewith. This is done in order to prevent the development of the edema being inhibited by any possible anti-inflammatory action and the analgesia being masked or feigned.
The ED50 is determined using the linear regression method. The ED50 is then the dose in mg/kg for which a 50% analgesic effect is calculated.

[6] = Acetic acid writhing pain test in mouse; type: in vivo; conditions: for ED50: read-out: analgesically effective ED50, acetic acid writhing test
Description: Acetic acid test (Writhing test) in the mouse
In the acetic acid test after KOSTER et al. (Fed. proc., Vol. 18, page 412 (1959)) the pain irritation is triggered by an intraperitoneal injection of 1% acetic acid. The pain reaction is expressed in the form of a characteristic stretching of the animals ("writhing syndrome") which continues at irregular intervals for some time after the acetic acid injection. The dose-related inhibition of the frequency of writhing movements as compared to an untreated control group is expressed as an analgesic effect in percent. Evaluation is effected by determining the ED50 (linear regression method). The ED50 is the dose in mg/kg which achieves a 50% inhibition in the writhing syndrome.
The characteristic feature of the acetic acid test is that it not only determines the effect of strong, centrally acting analgesics, but also that of predominantly peripherally acting analgesic, antipyretic and anti-inflammatory agents such as phenylbutazone, indomethacin, etc.

[7] = PAF-acether edema in the rat; type: in vivo; conditions: for % effect, PAF-acether edema: rat, given 0.5 hours before triggering, edema measured 1 hour thereafter
Procedure: (Platelet Aggregating Factor)-acether-edema in the rat
The principle of this method is to provoke a locally limited edema or inflammation in the rat paw by means of the subplantar injection of 2 μg of PAF acether per animal. The investigations were carried out on the basis of the method of SWINGLE and REITER (Agents and actions, 18, 358-365, (1986)). The animals received the test substances 0.5 hours before triggering of the edema. The edema was measured 1 hour thereafter. The ED50 was calculated using the linear regression method.

[8] = Cytoprotective effect in animal trials; conditions: in vivo
[9] = Carragheen-induced edema test in the rat (anti-inflammatory effect); type: in vivo; conditions: for ED50: read-out: anti-inflammatorally effective ED50, carragheen edema
Procedure: Carragheen-edema test for anti-inflammatory effect
The examination is carried out in carragheen-induced edema of rat paw on the basis of the method of MoRSDORF and colleagues (Arch. int. Pharmacodyn. 192, 111-127 (1971)). The anti-inflammatory effect is for example quoted as edema inhibition in percent as compared to the untreated control group. […]. The substance is given orally or intraperitoneally […]. The ED50 is the dose in mg/kg at which there is a 50% inhibition of the paw edema.

In the case of O=C(O)CCCCC(S)CCS (racemic) [dihydrolipoic acid, 6,8-dimercapto-octanoic acid], the “time after application at which the full effect appears” value ([1]; animal experiments) is given as 0.5 h, the “effect stronger than that of alpha-lipoic acid by a factor” value ([1]; in vivo) is given as 2-3 and the “inactivation of snake venom (in words)” value [2] is given as “inactivates snake venom”. For the same compound, the LD50 [3] was > 200 mg/kg, the “analgesic, anti-inflammatory, anti-arthrotic and cytoprotective effect in further models (in words)” value [4] was “good analgesic, anti-inflammatory, anti-arthrotic and cytoprotective effect” and the “analgesic effect (in words)” value ([5]; Randall Selitto inflammation pain test in rat) was “good analgesic effect”. For the same compound, the ED50 ([5]; ip, intraperitoneally, rat) was 0.14 mg/kg, the “analgesic effect superior to that of alpha-lipoic acid by a factor” value ([5]; peroral application, Randall Selitto, rat) was ≥ 2.8 and the ED50 ([5]; po, per os, rat) was 16.2 mg/kg. For the same compound, the minimal effective dose ([5]; po, per os, rat, read-out: minimum dose to produce an analgesic effect in the Randall Selitto pain test) was 5 mg/kg, the “analgesic effect (in words)” value ([6]; acetic acid writhing pain test in mouse) was “good analgesic effect” and the ED50 ([6]; ip, intraperitoneally, mouse) was 4.6 mg/kg. For the same compound, the “analgesic effect superior to that of alpha-lipoic acid by a factor” value ([6]; peroral application, acetic acid writhing, mouse) was “at least 1.9”, the ED50 ([6]; po, per os, mouse) was 26.8 mg/kg and the “% effect, PAF-acether edema” value ([7]; 25 mg/kg intraperitoneally) was 14%. For the same compound, the “% effect, PAF-acether edema” value ([7]; 50 mg/kg intraperitoneally) was 63%, the “% effect, PAF-acether edema” value ([7]; 200 mg/kg intraperitoneally) was 73% and the “inhibition of vasopermeability (in words)” value ([7]; PAF edema in the rat) was “good inhibition of vasopermeability”. For the same compound, the “cytoprotective effect (in words)” value [8] was “good cytoprotective effect; also recorded: specific cytoprotective effect”, the “anti-inflammatory activity (in words)” value ([9]; carragheen-induced edema in the rat) was “good anti-inflammatory activity” and the ED50 ([9]; ip, intraperitoneally, rat) was 7.7 mg/kg. The “anti-inflammatory activity superior to that of alpha-lipoic acid by a factor” value ([9]; peroral application, carragheen edema, rat) was “at least 1.9”, the ED50 ([9]; po, per os, rat) was 26 mg/kg and the minimal effective dose ([9]; po, per os, rat, read-out: minimum dose to produce an anti-inflammatory effect in the carragheen-induced edema test) was 5 mg/kg.
